According to publication PMC5762315, “Inhibition of polo-like kinase 4 (PLK4): a new therapeutic option for rhabdoid tumors and pediatric medulloblastoma” (Oncotarget, 2017):
“And” between values parts separate entries of the source, which are not always exact repeats. Identical values can stand only once.

Assays:
Experiment in all cases: LanthaScreen Eu Kinase Binding Assay, panel of 486 biochemical kinase assays
various kinases [1] = target: various kinases (Homo sapiens, UniProt P06493); settings: CDK1/cyclin A2
various kinases [2] = target: various kinases (Homo sapiens, UniProt Q02750); settings: MAP2K1 (MEK1)
various kinases [3] = target: various kinases (Homo sapiens, UniProt Q02779); settings: MAP3K10 (MLK2)
various kinases [4] = target: various kinases (Homo sapiens, UniProt P10721, A829P); settings: KIT A829P
various kinases [5] = target: various kinases (Homo sapiens, UniProt Q8N5S9); settings: CAMKK1 (CAMKKA)
various kinases [6] = target: various kinases (Homo sapiens, UniProt Q12866, A708S); settings: MERTK (cMER) A708S
various kinases [7] = target: T1, various kinases (Homo sapiens, UniProt P42680); settings: kinase TEC; LanthaScreen Binding
T1 sequence (P42680 1-631): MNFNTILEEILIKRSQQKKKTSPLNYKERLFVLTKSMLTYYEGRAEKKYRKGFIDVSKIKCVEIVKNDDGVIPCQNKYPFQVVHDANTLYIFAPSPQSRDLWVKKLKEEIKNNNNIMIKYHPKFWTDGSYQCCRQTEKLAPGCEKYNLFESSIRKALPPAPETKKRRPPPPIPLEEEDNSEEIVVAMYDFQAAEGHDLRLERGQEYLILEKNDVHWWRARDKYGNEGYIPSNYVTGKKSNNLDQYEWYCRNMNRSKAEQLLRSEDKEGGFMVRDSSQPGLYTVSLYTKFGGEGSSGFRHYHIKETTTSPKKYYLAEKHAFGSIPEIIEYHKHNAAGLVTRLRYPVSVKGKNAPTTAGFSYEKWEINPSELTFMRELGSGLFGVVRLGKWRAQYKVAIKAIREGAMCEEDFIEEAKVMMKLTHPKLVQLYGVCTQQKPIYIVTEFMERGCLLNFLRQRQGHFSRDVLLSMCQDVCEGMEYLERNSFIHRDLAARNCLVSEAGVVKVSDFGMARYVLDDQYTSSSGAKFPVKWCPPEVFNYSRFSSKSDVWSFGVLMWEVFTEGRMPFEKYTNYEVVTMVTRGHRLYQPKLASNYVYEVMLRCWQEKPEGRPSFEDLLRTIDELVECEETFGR

various kinases [8] = target: T2, various kinases (Homo sapiens, UniProt Q9UKI8); settings: kinase TLK1; LanthaScreen Binding
T2 sequence (Q9UKI8 1-766): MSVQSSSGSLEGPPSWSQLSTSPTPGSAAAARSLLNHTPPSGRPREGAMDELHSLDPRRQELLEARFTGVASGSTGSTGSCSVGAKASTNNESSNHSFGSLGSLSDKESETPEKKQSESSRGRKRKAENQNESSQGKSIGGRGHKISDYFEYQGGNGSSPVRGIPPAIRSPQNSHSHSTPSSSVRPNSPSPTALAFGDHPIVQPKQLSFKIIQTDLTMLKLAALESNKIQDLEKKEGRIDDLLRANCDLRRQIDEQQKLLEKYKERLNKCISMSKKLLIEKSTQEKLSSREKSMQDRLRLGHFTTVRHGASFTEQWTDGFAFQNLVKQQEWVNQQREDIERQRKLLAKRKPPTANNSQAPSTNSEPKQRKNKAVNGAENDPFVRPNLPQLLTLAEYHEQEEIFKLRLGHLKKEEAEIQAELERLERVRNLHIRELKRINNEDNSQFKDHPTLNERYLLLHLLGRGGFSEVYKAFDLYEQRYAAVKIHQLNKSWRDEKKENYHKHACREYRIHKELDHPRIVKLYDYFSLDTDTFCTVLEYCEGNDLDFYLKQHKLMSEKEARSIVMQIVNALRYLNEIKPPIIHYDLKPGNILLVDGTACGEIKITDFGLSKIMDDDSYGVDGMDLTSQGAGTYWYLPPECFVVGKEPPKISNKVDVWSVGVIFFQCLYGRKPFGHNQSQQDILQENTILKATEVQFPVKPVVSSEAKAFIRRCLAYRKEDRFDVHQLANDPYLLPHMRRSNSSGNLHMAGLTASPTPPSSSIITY

various kinases [9] = target: various kinases (Homo sapiens, UniProt Q9UKE5); settings: kinase TNIK; LanthaScreen Binding
various kinases [10] = target: various kinases (Homo sapiens, UniProt P00519, H396P); settings: ABL1 H396P
various kinases [11] = target: various kinases (Homo sapiens, UniProt P45984); settings: MAPK9 (JNK2)
various kinases [12] = target: various kinases (Homo sapiens, UniProt Q86YV6); settings: MYLK4
various kinases [13] = target: various kinases (Homo sapiens, UniProt P10721, V654A); settings: KIT V654A
various kinases [14] = target: various kinases (Homo sapiens, UniProt Q9BYT3); settings: kinase STK33; LanthaScreen Binding
various kinases [15] = target: various kinases (Homo sapiens, UniProt P30291); settings: kinase WEE1; LanthaScreen Binding
various kinases [16] = target: various kinases (Homo sapiens, UniProt P00519, Q252H); settings: ABL1 Q252H
various kinases [17] = target: various kinases (Homo sapiens, UniProt Q9Y3S1); settings: kinase WNK2; LanthaScreen Binding
various kinases [18] = target: various kinases (Homo sapiens, UniProt Q15835); settings: GRK1
various kinases [19] = target: various kinases (Homo sapiens, UniProt Q13555); settings: CAMK2G (CaMKII gamma)

Sequence of various kinases (Homo sapiens, UniProt Q9UKE5) (Q9UKE5 whole entry): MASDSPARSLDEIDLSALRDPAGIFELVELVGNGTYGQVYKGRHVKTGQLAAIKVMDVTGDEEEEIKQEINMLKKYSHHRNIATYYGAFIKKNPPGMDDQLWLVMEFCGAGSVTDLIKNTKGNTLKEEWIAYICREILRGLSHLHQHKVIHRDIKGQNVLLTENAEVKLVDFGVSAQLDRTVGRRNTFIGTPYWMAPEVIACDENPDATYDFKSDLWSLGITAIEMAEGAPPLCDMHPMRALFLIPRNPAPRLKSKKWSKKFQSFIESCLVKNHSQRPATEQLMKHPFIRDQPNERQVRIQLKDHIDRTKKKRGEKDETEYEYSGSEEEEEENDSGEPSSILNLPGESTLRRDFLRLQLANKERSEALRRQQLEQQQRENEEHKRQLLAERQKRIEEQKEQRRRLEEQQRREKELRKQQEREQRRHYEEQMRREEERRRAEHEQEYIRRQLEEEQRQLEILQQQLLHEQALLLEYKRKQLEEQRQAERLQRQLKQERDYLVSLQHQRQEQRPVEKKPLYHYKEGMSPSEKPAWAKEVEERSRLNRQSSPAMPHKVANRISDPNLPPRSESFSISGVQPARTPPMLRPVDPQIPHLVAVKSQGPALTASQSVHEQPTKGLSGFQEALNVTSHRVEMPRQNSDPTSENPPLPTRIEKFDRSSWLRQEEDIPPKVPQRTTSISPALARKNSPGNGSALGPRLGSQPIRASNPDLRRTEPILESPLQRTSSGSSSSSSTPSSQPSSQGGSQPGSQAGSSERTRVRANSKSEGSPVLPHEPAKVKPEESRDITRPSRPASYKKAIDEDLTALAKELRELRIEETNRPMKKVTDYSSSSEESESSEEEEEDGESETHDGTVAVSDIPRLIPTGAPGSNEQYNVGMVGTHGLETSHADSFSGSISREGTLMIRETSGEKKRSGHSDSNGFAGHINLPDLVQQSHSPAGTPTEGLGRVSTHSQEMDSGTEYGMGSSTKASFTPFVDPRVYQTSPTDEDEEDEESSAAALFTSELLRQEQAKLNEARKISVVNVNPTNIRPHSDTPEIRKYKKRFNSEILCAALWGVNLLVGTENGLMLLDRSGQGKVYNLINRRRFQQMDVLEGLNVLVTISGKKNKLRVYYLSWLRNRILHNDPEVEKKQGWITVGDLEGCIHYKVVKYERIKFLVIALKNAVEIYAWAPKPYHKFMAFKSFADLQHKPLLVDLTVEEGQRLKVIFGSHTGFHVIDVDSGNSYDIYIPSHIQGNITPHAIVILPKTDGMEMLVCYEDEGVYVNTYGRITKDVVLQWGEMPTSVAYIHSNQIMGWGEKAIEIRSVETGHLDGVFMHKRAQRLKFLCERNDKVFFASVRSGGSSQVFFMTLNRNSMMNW
Sequence of various kinases (Homo sapiens, UniProt Q9BYT3) (Q9BYT3 whole entry): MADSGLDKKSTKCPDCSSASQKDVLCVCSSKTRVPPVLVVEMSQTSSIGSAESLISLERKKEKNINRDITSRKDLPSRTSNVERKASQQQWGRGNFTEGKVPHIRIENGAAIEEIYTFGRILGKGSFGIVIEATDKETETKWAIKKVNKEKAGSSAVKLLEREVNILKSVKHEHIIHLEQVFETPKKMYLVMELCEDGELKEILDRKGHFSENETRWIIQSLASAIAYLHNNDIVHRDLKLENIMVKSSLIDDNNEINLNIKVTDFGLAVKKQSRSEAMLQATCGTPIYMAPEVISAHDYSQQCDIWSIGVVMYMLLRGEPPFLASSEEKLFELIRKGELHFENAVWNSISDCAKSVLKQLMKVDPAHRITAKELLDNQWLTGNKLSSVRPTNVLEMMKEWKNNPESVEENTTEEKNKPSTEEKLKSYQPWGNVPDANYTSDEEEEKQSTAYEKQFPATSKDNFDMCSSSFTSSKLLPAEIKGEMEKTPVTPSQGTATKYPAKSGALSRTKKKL
Sequence of various kinases (Homo sapiens, UniProt P30291) (P30291 whole entry): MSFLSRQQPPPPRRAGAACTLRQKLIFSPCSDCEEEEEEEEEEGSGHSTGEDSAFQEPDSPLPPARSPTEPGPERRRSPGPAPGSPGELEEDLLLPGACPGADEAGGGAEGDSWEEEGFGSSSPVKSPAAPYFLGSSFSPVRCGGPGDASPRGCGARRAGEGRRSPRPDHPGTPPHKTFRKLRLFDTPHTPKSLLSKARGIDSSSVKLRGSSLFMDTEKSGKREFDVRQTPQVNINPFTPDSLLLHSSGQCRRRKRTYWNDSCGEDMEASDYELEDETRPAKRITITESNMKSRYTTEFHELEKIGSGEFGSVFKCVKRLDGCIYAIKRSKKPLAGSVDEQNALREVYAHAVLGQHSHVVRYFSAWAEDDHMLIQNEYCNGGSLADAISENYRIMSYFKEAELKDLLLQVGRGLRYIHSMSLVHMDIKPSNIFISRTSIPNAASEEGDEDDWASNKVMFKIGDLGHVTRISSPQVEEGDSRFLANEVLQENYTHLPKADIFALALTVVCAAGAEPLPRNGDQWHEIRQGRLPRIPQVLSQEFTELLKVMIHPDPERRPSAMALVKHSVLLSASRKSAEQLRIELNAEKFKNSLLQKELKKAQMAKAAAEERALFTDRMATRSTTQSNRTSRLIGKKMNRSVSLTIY
Sequence of various kinases (Homo sapiens, UniProt Q9Y3S1) (Q9Y3S1 whole entry): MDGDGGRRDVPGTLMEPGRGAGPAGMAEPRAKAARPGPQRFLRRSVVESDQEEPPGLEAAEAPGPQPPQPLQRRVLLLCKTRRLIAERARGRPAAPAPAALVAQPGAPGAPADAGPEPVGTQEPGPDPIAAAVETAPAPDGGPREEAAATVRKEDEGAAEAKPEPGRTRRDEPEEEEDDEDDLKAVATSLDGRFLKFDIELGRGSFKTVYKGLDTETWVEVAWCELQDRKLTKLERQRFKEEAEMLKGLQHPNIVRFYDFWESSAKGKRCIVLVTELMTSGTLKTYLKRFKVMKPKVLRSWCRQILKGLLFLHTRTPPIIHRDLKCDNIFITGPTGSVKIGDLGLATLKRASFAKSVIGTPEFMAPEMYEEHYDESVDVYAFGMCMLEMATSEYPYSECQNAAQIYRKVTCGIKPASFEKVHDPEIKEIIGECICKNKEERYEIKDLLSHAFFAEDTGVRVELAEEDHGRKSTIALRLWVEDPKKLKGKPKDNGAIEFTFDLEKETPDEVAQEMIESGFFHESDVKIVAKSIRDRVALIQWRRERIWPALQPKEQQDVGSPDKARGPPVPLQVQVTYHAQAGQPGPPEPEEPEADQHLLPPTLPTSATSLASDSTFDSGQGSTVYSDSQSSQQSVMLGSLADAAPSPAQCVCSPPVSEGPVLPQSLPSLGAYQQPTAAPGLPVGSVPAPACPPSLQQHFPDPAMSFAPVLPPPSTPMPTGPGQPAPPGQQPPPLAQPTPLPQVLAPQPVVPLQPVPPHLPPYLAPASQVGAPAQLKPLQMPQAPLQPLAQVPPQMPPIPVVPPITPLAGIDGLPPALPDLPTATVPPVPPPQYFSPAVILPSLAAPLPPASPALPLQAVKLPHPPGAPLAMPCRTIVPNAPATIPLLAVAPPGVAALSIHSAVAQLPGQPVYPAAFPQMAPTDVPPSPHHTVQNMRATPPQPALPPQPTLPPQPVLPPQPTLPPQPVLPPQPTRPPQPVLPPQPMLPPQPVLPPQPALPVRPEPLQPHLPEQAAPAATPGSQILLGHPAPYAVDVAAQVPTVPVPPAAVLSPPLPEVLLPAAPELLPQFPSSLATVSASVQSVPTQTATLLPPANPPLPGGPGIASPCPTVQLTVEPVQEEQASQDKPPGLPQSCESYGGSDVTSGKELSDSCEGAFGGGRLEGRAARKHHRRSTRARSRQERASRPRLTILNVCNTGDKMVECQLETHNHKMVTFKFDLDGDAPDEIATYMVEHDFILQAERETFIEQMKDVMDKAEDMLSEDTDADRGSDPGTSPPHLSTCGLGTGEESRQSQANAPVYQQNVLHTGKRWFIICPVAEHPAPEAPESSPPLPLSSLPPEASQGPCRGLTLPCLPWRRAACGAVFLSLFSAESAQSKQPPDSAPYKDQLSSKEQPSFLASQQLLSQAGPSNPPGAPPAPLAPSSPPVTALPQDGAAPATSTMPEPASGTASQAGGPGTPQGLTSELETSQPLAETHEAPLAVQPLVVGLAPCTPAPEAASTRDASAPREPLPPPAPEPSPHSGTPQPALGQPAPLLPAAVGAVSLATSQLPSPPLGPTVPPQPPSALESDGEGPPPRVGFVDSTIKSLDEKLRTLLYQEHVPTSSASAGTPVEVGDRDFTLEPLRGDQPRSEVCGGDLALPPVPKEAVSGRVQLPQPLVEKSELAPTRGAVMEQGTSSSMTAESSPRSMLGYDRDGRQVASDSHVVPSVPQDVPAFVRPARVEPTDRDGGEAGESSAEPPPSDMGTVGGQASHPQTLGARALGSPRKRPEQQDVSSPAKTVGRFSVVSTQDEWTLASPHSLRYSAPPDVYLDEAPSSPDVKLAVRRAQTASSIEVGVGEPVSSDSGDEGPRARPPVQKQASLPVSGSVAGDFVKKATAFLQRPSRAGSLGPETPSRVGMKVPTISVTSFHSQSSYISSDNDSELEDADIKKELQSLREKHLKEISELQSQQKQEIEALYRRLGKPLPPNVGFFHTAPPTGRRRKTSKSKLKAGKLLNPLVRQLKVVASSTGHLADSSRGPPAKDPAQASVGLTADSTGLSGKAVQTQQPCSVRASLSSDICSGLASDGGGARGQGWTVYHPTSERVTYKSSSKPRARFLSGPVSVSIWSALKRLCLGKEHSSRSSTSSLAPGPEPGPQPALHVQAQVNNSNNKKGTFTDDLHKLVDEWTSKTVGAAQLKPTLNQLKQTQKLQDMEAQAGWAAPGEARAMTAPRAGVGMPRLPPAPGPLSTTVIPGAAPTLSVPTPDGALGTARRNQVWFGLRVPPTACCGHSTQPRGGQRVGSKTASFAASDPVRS
Sequence of various kinases (Homo sapiens, UniProt P06493) (P06493 whole entry): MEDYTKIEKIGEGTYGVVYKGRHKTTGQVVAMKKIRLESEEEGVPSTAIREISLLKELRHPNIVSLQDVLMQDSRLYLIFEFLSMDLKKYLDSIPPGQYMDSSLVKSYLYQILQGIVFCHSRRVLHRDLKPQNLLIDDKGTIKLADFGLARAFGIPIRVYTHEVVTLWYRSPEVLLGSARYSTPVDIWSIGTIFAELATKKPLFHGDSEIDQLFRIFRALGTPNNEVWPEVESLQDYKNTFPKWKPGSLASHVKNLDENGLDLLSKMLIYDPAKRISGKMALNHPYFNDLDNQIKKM

In the case of `COc1ccc2c(c1)[C@]1(C[C@H]1c1ccc3c(/C=C/c4ccc(CN5C[C@@H](C)O[C@@H](C)C5)cc4)n[nH]c3c1)C(=O)N2` [CFI-400945], the “% Inhibition” value (various kinases [1]) is reported as 24% and 17%, the “% Inhibition” value (various kinases [2]) is reported as 9% and 8% and the “% Inhibition” value (various kinases [3]) is reported as -2% and 1%. For the same compound, the “% Inhibition” value (various kinases [4]) was 0% and 7%, the “% Inhibition” value (various kinases [5]) was -4% and -3% and the “% Inhibition” value (various kinases [6]) was 7% and 2%. The “% Inhibition Average” value (various kinases [7]) was -1%, the “% Inhibition Duplicate #1” value (various kinases [7]) was 1% and the “% Inhibition Duplicate #2” value (various kinases [7]) was -3%. The “% Inhibition Average” value (various kinases [8]) was 0%, the “% Inhibition Duplicate #1” value (various kinases [8]) was -1% and the “% Inhibition Duplicate #2” value (various kinases [8]) was 0%. The “% Inhibition Average” value (various kinases [9]) was 26%, the “% Inhibition Duplicate #1” value (various kinases [9]) was 33% and the “% Inhibition Duplicate #2” value (various kinases [9]) was 18%. For the same compound, the “% Inhibition” value (various kinases [10]) was 72% and 73%, the “% Inhibition” value (various kinases [11]) was -4% and -2% and the “% Inhibition” value (various kinases [12]) was 7% and 13%. For the same compound, the “% Inhibition” value (various kinases [13]) was 6%, the “% Inhibition Average” value (various kinases [14]) was -2% and the “% Inhibition Duplicate #1” value (various kinases [14]) was -2%. For the same compound, the “% Inhibition Duplicate #2” value (various kinases [14]) was -2%, the “% Inhibition Average” value (various kinases [15]) was -5% and the “% Inhibition Duplicate #1” value (various kinases [15]) was -7%. The “% Inhibition Duplicate #2” value (various kinases [15]) was -2%, the “% Inhibition” value (various kinases [16]) was 72% and the “% Inhibition Average” value (various kinases [17]) was -3%. For the same compound, the “% Inhibition Duplicate #1” value (various kinases [17]) was -6%, the “% Inhibition Duplicate #2” value (various kinases [17]) was 0% and the “% Inhibition” value (various kinases [18]) was 22% and 13%. For the same compound, the “% Inhibition” value (various kinases [19]) was 50% and 36%.
